Measurements taken from patent publication US20060002913A1, “Use of histamine and related compounds to treat disorders affecting muscle function” (priority 2004, published 2006).

Experiments:
[1] = molecular target: membrane bound non-mitochondrial oxidase of stimulated phagocytes (Homo sapiens, UniProt P04839); conditions: substrate of the oxidase that converts oxygen to superoxide; cited from earlier work
[2] = test system: patient with amyotrophic lateral sclerosis; conditions: orally 1 mg/day for six months
Method: A patient with amyotrophic lateral sclerosis received treatment with histamine dihydrochloride. Histamine dihydrochloride was administered orally at a dosage of 1 mg/day for a period of six months.

[3] = test system: patient suffering from Acute Myelogenous Leukemia (AML) and fibromyalgia; conditions: given with IL-2, subcutaneously two times per day, 0.5 mg per injection, 21-day cycles repeated for 18 months with 21-day intermissions
Method: A patient, suffering from Acute Myelogenous Leukemia (AML) and fibromyalgia received treatment with histamine dihydrochloride and IL-2. Histamine dihydrochloride was administered subcutaneously two times per day at a dosage of 0.5 mg per injection for a period of 21 consecutive days.
The above 21-day cycle was repeated for 18 months with 21-day intermissions between cycles.

[4] = test system: subjects suffering from muscle pain exacerbated by ROS and/or inflammatory cytokines; assay: Inhibition of muscle pain, self-rated pain scale 1 to 10 (Example 3); assay type: in vivo, human; conditions: effective dose, after several weeks of treatment; groups of 10 subjects; vs placebo
Method: Subjects suffering from muscle pain exacerbated by ROS and/or inflammatory cytokines are identified. The subjects are asked to rate their pain on a scale of 1 to 10, with 1 indicating no pain or mild pain and 10 indicating severe pain. The subjects are then separated into 11 groups of 10 subjects each. […] Subjects in Group 11 are administered a placebo. After several weeks of treatment, subjects are again asked to rate their pain using the scale above.

[5] = test system: individuals suffering from multiple sclerosis; conditions: orally 10, 30, 50, 100, 200 and 1,000 mg; vs placebo
Method: Individuals suffering from multiple sclerosis are identified. The individuals are asked to fill out a questionnaire regarding commonly experienced symptoms experienced by MS patients as well as the rate and severity of each symptom. The individuals are then separated into 7 groups of 20 individuals. […] Individuals in Group 7 are administered a placebo. Following the course of treatment, the individuals are again asked to fill out the same questionnaire.

Structure (SMILES) | Km [1] | muscle pain, self-rated on a scale of 1 to 10 [4] | other results
NC(=O)C1=CN([C@@H]2O[C@H](COP(=O)(O)OP(=O)(O)OC[C@H]3O[C@@H](n4cnc5c(N)ncnc54)[C@H](O)[C@@H]3O)[C@@H](O)[C@H]2O)C=CC1 [NADH] | 450 µM |  | 
NC(=O)C1=CN([C@@H]2O[C@H](COP(=O)(O)OP(=O)(O)OC[C@H]3O[C@@H](n4cnc5c(N)ncnc54)[C@H](OP(=O)(O)O)[C@@H]3O)[C@@H](O)[C@H]2O)C=CC1 [NADPH] | 45 µM |  | 
Cl.Cl.NCCc1c[nH]cn1 [histamine dihydrochloride] |  | reduction in muscle pain | progression of ALS [2]: arrested; patient's symptoms (fibromyalgia muscle pain) [3]: symptoms disappeared while on treatment and returned during intermissions
NCCc1c[nH]cn1.O=P(O)(O)O [histamine phosphate] |  | reduction in muscle pain | 
NCCc1c[nH]cn1 [histamine] |  | reduction in muscle pain | rate and severity of symptoms associated with muscle damage (questionnaire) [5]: decrease in both the rate and severity of symptoms associated with muscle damage
NCCc1c[nH]c2ccc(O)cc12 [serotonin] |  | reduction in muscle pain | 
